# In PMC10997603, “Cryo-EM structures of pannexin 1 and 3 reveal differences among pannexin isoforms” (Nature Communications, 2024):
# Changes are numbered by the printed parent chain. Names may count otherwise. Where two headings read alike, the source gives them in different places.
# B1: human pannexin 3 (PANX3), full length (natural protein, UniProt Q96QZ0 1-392, looked up)
# chain: MSLAHTAAEYMLSDALLPDRRGPRLKGLRLELPLDRIVKFVAVGSPLLLMSLAFAQEFSSGSPISCFSPSNFSIRQAAYVDSSCWDSLLHHKQDGPGQDKMKSLWPHKALPYSLLALALLMYLPVLLWQYAAVPALSSDLLFIISELDKSYNRSIRLVQHMLKIRQKSSDPYVFWNELEKARKERYFEFPLLERYLACKQRSHSLVATYLLRNSLLLIFTSATYLYLGHFHLDVFFQEEFSCSIKTGLLSDETHVPNLITCRLTSLSIFQIVSLSSVAIYTILVPVIIYNLTRLCRWDKRLLSVYEMLPAFDLLSRKMLGCPINDLNVILLFLRANISELISFSWLSVLCVLKDTTTQKHNIDTVVDFMTLLAGLEPSKPKHLTNSACDEHP
# modifications: N-acetylglucosamine (NAG) at N71
# notes: Pannexin 3, human, UniProt Q96QZ0, full length (392 residues); C-terminal TEV site (ENLYFQ) lies between the protein and eGFP-8xHis; residues of the site may be left after cleavage; Residues 1-24, 160-185 and 373-392 are not seen in the map; also called PANX3WT; source: HEK293S GnTI- cells, BacMam virus, purified (Ni-NTA, TEV cleavage, SEC) in GDN; not shown: eGFP, C-terminal, cleaved; 8x His, …
# B2: human pannexin 1 (PANX1), full length, wild type (natural protein, UniProt Q96RD7 1-426, looked up)
# chain: MAIAQLATEYVFSDFLLKEPTEPKFKGLRLELAVDKMVTCIAVGLPLLLISLAFAQEISIGTQISCFSPSSFSWRQAAFVDSYCWAAVQQKNSLQSESGNLPLWLHKFFPYILLLFAILLYLPPLFWRFAAAPHICSDLKFIMEELDKVYNRAIKAAKSARDLDMRDGACSVPGVTENLGQSLWEVSESHFKYPIVEQYLKTKKNSNNLIIKYISCRLLTLIIILLACIYLGYYFSLSSLSDEFVCSIKSGILRNDSTVPDQFQCKLIAVGIFQLLSVINLVVYVLLAPVVVYTLFVPFRQKTDVLKVYEILPTFDVLHFKSEGYNDLSLYNLFLEENISEVKSYKCLKVLENIKSSGQGIDPMLLLTNLGMIKMDVVDGKTPMSAEMREEQGNQTAELQGMNIDSETKANNGEKNARQRLLDSSC
# notes: Pannexin 1, human, UniProt Q96RD7, full length; C-terminal TEV site (ENLYFQ) lies between the protein and eGFP-8xHis; residues of the site may be left after cleavage; Only a map (no model) was deposited; also called PANX1WT; source: HEK293S GnTI- cells, BacMam virus, purified (Ni-NTA, TEV cleavage, SEC) in GDN; not shown: eGFP, C-terminal, cleaved; 8x His, C-terminal, cleaved
# B3: human pannexin 1 double mutant W74R/R75D (natural protein, UniProt Q96RD7 1-426, looked up)
# chain: B2 chain with W74R, R75D
# notes: Pannexin 1, human, UniProt Q96RD7, full length, with W74R and R75D; TEV site residues may be left after cleavage; also called PANX1_(WR/RD); PANX1 W74R/R75D; source: HEK293S GnTI- cells, BacMam virus, purified (Ni-NTA, TEV cleavage, SEC) in GDN; not shown: eGFP, C-terminal, cleaved; 8x His, C-terminal, cleaved
# B4: human pannexin 1 germline mutant R217H (natural protein, UniProt Q96RD7 1-426, looked up)
# chain: B2 chain with R217H
# notes: Pannexin 1, human, UniProt Q96RD7, full length, with the germline substitution R217H (TM3); TEV site residues may be left after cleavage; also called PANX1_(R217H); source: HEK293S GnTI- cells, BacMam virus, purified (Ni-NTA, TEV cleavage, SEC) in GDN; not shown: eGFP, C-terminal, cleaved; 8x His, C-terminal, cleaved
# Key:
# PANX1 (PANX1WT) [1] = biological target: T1, PANX1 (PANX1WT) (Homo sapiens, UniProt Q96RD7, R217H); test: microscale thermophoresis; details: read-out: apparent binding affinity
# T1 construct: full-length; C-terminal TEV site-eGFP-8xHis, GFP/His cut by TEV for purified protein; HEK293S GnTI- (BacMam), GDN-solubilised homoheptamer; transiently transfected HEK293 for patch clamp
# PANX1 (PANX1WT) [2] = biological target: T2, PANX1 (PANX1WT) (Homo sapiens, UniProt Q96RD7, R75A); test: microscale thermophoresis; details: read-out: binding affinity
# T2 construct: full-length; C-terminal TEV site-eGFP-8xHis, GFP/His cut by TEV for purified protein; HEK293S GnTI- (BacMam), GDN-solubilised homoheptamer; transiently transfected HEK293 for patch clamp
# PANX1 (PANX1WT) [3] = biological target: T3, PANX1 (PANX1WT) (Homo sapiens, UniProt Q96RD7, R75D/W74R); test: microscale thermophoresis; assay type: binding
# T3 construct: full-length; C-terminal TEV site-eGFP-8xHis, GFP/His cut by TEV for purified protein; HEK293S GnTI- (BacMam), GDN-solubilised homoheptamer; transiently transfected HEK293 for patch clamp
# PANX1 (PANX1WT) [4] = biological target: T4, PANX1 (PANX1WT) (Homo sapiens, UniProt Q96RD7); test: microscale thermophoresis; assay type: binding
# T4 construct: full-length; C-terminal TEV site-eGFP-8xHis, GFP/His cut by TEV for purified protein; HEK293S GnTI- (BacMam), GDN-solubilised homoheptamer; transiently transfected HEK293 for patch clamp
# PANX1 (PANX1WT) [5] = biological target: T5, PANX1 (PANX1WT) (Homo sapiens, UniProt Q96RD7, K24A); test: microscale thermophoresis; assay type: binding
# T5 construct: full-length; C-terminal TEV site-eGFP-8xHis, GFP/His cut by TEV for purified protein; HEK293S GnTI- (BacMam), GDN-solubilised homoheptamer; transiently transfected HEK293 for patch clamp
# PANX3 (PANX3WT) [6] = biological target: T6, PANX3 (PANX3WT) (Homo sapiens, UniProt Q96QZ0); test: microscale thermophoresis; assay type: binding; details: read-out: affinity
# T6 construct: full-length, 392 residues; C-terminal TEV site-eGFP-8xHis, GFP/His cut by TEV for purified protein; HEK293S GnTI- (BacMam), GDN-solubilised homoheptamer; transiently transfected HEK293 for patch clamp
# T6 sequence (Q96QZ0 1-392): B1 chain
# PANX3 (PANX3WT) [7] = biological target: T6, PANX3 (PANX3WT); test: whole-cell patch clamp, transfected HEK293; assay type: cell-based; details: pH 7.4, 23 °C; 100 µM in bath
# PANX1 (PANX1WT) [8] = biological target: T1, PANX1 (PANX1WT); test: whole-cell patch clamp, transfected HEK293; assay type: cell-based; details: pH 7.4, 23 °C; 100 µM in bath
# PANX1 (PANX1WT) [9] = biological target: T7, PANX1 (PANX1WT) (Homo sapiens, UniProt Q96RD7, W74R/R75D); test: whole-cell patch clamp, transfected HEK293; assay type: cell-based; details: pH 7.4, 23 °C; 100 µM in bath
# T7 construct: full-length; C-terminal TEV site-eGFP-8xHis, GFP/His cut by TEV for purified protein; HEK293S GnTI- (BacMam), GDN-solubilised homoheptamer; transiently transfected HEK293 for patch clamp
# [10] = biological target: the molecule itself; test: cryo-EM structure; purified channel in GDN detergent, 25 mM Tris pH 8.0, 100 mM KCl, 1% glycerol, 5 mg/ml; 1 mM ATP added for PANX3; C7 symmetry imposed
# T1 sequence (Q96RD7 whole entry R217H): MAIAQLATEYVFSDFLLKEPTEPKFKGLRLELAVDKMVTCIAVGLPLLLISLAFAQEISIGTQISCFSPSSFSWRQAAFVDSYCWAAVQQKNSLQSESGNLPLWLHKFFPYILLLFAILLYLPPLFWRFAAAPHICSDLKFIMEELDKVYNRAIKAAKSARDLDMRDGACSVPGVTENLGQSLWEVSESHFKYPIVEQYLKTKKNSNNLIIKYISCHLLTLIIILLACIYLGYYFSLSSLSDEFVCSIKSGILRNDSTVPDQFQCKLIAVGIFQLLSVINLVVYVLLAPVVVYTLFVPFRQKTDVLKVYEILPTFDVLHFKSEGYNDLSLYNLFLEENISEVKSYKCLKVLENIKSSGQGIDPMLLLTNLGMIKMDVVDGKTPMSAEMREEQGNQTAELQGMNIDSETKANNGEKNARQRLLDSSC
# T3 sequence (Q96RD7 whole entry W74R/R75D): as the sequence (Q96RD7 whole entry R217H) above, with W74R, R75D, H217R counted along it
# T7 sequence (Q96RD7 whole entry W74R/R75D): as the sequence (Q96RD7 whole entry R217H) above, with W74R, R75D, H217R counted along it
# T2 sequence (Q96RD7 whole entry R75A): as the sequence (Q96RD7 whole entry R217H) above, with R75A, H217R counted along it
# T5 sequence (Q96RD7 whole entry K24A): as the sequence (Q96RD7 whole entry R217H) above, with K24A, H217R counted along it
molecule,measurement,setting,value
Nc1ncnc2c1ncn2[C@@H]1O[C@H](CO[P@](=O)(O)O[P@](=O)(O)O[P@@](=O)(O)S)[C@@H](O)[C@H]1O [ATP-γS],Kd,PANX1 (PANX1WT) [1],186 ± 70 µM
same,Kd,PANX1 (PANX1WT) [2],114 ± 28 µM
same,Kd,PANX1 (PANX1WT) [3],67 ± 17 µM
same,Kd,PANX1 (PANX1WT) [4]; read-out: apparent binding affinity,18 ± 4 µM
same,Kd,PANX1 (PANX1WT) [5],94 ± 15 µM
same,Kd,PANX3 (PANX3WT) [6],69 µM
Nc1ncnc2c1ncn2[C@@H]1O[C@H](COP(=O)(O)OP(=O)(O)OP(=O)(O)O)[C@@H](O)[C@H]1O [ATP],Kd,PANX1 (PANX1WT) [4]; read-out: affinity,21 ± 11 µM
CC1(C)[C@@H](OC(=O)CCC(=O)O)CC[C@]2(C)[C@H]3C(=O)C=C4[C@@H]5C[C@@](C)(C(=O)O)CC[C@]5(C)CC[C@@]4(C)[C@]3(C)CC[C@@H]12 [carbenoxolone],inhibition of currents at 100 μM,PANX3 (PANX3WT) [7],"We observe weaker CBX sensitivity in PANX3, in comparison to PANX1"
same,inhibition of currents at 100 μM,PANX1 (PANX1WT) [8],inhibition of PANX1R217H currents by CBX similar to PANX1WT
same,inhibition of currents at 100 μM,PANX1 (PANX1WT) [9],decreased inhibition of PANX1WR/RD currents with CBX compared to PANX1WT
B1,stoichiometry N,[10],7
B2,stoichiometry N,[10],7
B3,binding result,[10],binds
B4,binding result,[10],binds
